Tests used:
[1] = test system: CT-L activity of proteasomes in RPMI 8226 cell extracts; test: CT-L activity of proteasomes in RPMI 8226 cell extracts (Suc-LLVY-AMC); assay type: biochemical, human
Protocol: (§1) The inhibitory effects of G4-1 on the CT-L, C-L and T-L activities were measured by assessing the hydrolysis of the fluorogenic proteasome substrates Suc-LLVY-AMC, Z-LLE-AMC and Boc-LRR-AMC, respectively. […] FIG. 5C provides a reaction progress curve with 30 min preincubation of RPMI 8226 cell extracts and G4-1. […] FIG. 5E includes the potency of G4-1 in inducing cell death in BxPC-3 cell lines with acquired resistance to bortezomib or carfilzomib. FIG. 5F provides a comparison of IC50 values of BxPC-3 sublines resistant to carfilzomib or bortezomib to its parental cell lines.
(§2) In separate experiments, cytosolic extracts of RPMI-8226 or BxPC-3 cells were prepared according to the method of Kisselev and Goldberg^25 and used in place of purified proteasomes. The fluorescence from liberated AMC of the subunit-selective probe substrates was measured as described above.

[2] = test system: variety of cancer cell lines including LNCaP prostate cancer cells; test: Cytotoxic effects, multiple cancer cell lines; assay type: cell-based, human
Description: (§3) Human cancer cell lines BxPC-3, H358, H-23, LNCaP, Panc-1, and RPMI 8226 were obtained from the ATCC (American Type Culture Collection) and maintained in the ATCC-recommended media, DMEM or RPMI 1640 supplemented with 10% fetal bovine serum (from GIBCO, CeliGro, and Atlanta Biologicals). BxPC-3 cells with acquired resistance to bortezomib or carfilzomib were established by growing them in the presence of stepwise in-creasing concentrations of the respective drug over a period of approximately 6 months. In order to determine the extent of drug resistance, cytotoxicity assays were performed using BxPC-3 sublines adapted to 60 nM bortezomib and 200 nM carfilzomib, respectively.
(§4) The cytotoxic effects of G4 and its analogs were determined using CellTiter Glo assay or CellTiter 96 Aqueous One Solution Cell Proliferation assay (Promega). Adherent cells (Panc-1, LNCaP, BxPC-3, bortezomib- or carfilzomib-resistant BxPC-3 sublines) growing in log phase were plated at 7000-10000 cells per well. RPMI 8226 cells growing in suspension were collected by centrifugation and plated at 10 000 cells per well. […] After 72 h, the cell viability was determined using the assay protocol recommended by the manufacturers. The resulting signals were quantified using a Veritas microplate luminometer or a SpectraMax M5 microplate spectrophotometer (Molecular Devices).

[3] = Microsomal stability assay, mouse; assay type: in vitro ADME; conditions: mouse liver microsomes, compared to carfilzomib and bortezomib
Protocol: (§5) The metabolic stability profiles of G4-1 and reference compounds (carfilzomib and bortezomib) were assessed by monitoring the disappearance of the test compounds in the presence of liver microsomes. A typical incubation mixture (100 sL total volume) for metabolic stability studies contained 1 sM test compounds, 0.5 mg/mL microsomal protein (pooled Balb/c mouse liver microsomes prepared in-house or BD UltraPool human liver microsomes), 100 mM Tris-HCl buffer (pH 7.4), and NADPH-generating system (5 mM isocitric acid, 0.2 unit/mL isocitric acid dehydrogenase, 5 mM magnesium chloride, 1 mM NADP^+). After preincubation at 37° C. for 5 min, the reactions were started by addition of NADP^+ and further incubated for another 0, 5, 10, 20 min. For control experiments, NADPH and/or liver microsomes were omitted from these incubations. The reactions were terminated by adding 100 sL of ice-cold acetonitrile containing phenytoin (1 sM) as internal standard and keeping on ice for 30 min, followed by centrifugation at 16 100 g for 15 min to obtain the supernatant. Aliquots (5 sL) were then analyzed for substrate disappearance using liquid chromatography-tandem mass spectrometry (Agilent 1200 HPLC instrument interfaced with Applied Biosystems Qtrap 3200) equipped with an electrospray ion source.

[4] = test system: BxPC-3 cell lines with acquired resistance to bortezomib or carfilzomib; test: Cytotoxic effects, BxPC-3 sublines with acquired resistance to bortezomib or carfilzomib; assay type: cell-based, human
Description: as §3, §4

[5] = test system: LNCaP tumors; test: In vivo efficacy assay, LNCaP xenograft; conditions: 5 mg/kg intraperitoneally twice a week for 4 weeks
Protocol: (§6) Male nude mice bearing LNCaP tumors received intraperitoneal injections of either G4-1 (5 mg/kg), carfilzomib (5 mg/kg), or vehicle alone (8% DMSO in HP-β-cyclodextrin and sodium citrate) twice a week for 4 weeks (n=5 mice/group). Results are expressed as mean and standard deviation.
(§7) Six-week-old male BALB/c athymic nude mice (purchased from Orient Bio Inc., SungNam, Republic of Korea) were maintained in accordance with the National Institute of Toxicological Research of the Korea Food and Drug Administration guidelines as well as the regulations for the care and use of laboratory animals of the animal ethics committee of the Konyang University. LNCaP cells (2×10^6 cells/50 sL) were subcutaneously implanted into each animal. After the xenograft tumors had grown to a size of ‘−100 mm^3, mice (n=5/group) were dosed intraperitoneally twice a week for 4 weeks with G4-1 (5 mg/kg), carfilzomib (5 mg/kg), or vehicle only (8% DMSO in HP-Beta-CD and citrate). Tumor volumes (calculated using the following formula, (width)^2×length/2) and body weights were measured every 4 days during the experimental period. At the end of the experimental period (at day 30), mice were euthanized by cervical dislocation and tumors were isolated and weighed.

[6] = target: T1, CT-L activity of purified constitutive proteasome (Homo sapiens, UniProt P28074); test: G4 analogs against the CT-L activity of purified proteasomes; assay type: biochemical
T1 construct: purchased R&D Systems
Protocol: Initially, purified 20S human proteasomes (CP and IP, R&D Systems) were used to assess the in vitro inhibition of proteasome catalytic activities by G4 and its analogs. In the 96-well format assays involving a 100/4 L total volume, 20S proteasomes (0.5/4 g/mL) were incubated with G4, its analogs, or reference compounds (e.g., carfilzomib) in assay buffer (20 mM Tris-HCl, 0.5 mM EDTA, 0.035% SDS) for 30 min at room temperature. Reactions were initiated by the addition of individual subunit-selective fluorogenic substrates containing the AMC (7-amino-4-methylcoumarin) group. The following substrates were used: for /31 activity, Ac-nLPnLD-AMC (100/4M); for /32 and /32i activity, Boc-LRR-AMC (200/4M); for /35 activity, Ac-WLA-AMC (20/4M); for /31i activity, Ac-PAL-AMC (100/4M); for /35i activity, Ac-ANW-AMC (100/4M). The fluorescence of liberated AMC was measured over a period of 90 min at room temperature using excitation and emission wavelengths of 360 and 460 nm on a SpectraMax M5 fluorescence plate reader (Molecular Devices).
In comparison, modifications at the ring D had little impact on the activity of G4. […] The mechanism by which these compounds enhance the CT-L activity of proteasome is unclear at this time.

[7] = test system: T-L activity of proteasomes in RPMI 8226 cell extracts; test: T-L activity of proteasomes in RPMI 8226 cell extracts (Boc-LRR-AMC); assay type: biochemical, human
Protocol: as §1, §2

[8] = test system: proteasome in RPMI 8226 cell lysates; test: Jump dilution reversibility assay; assay type: biochemical, human; conditions: preincubation of RPMI 8226 cell extracts for 30 min
Protocol: In further investigation of the mode of proteasome inhibition by G4-1, a dilution assay was performed following a procedure previously reported.^26 Briefly, RPMI 8226 cell lysates containing 30/4 g of total protein were incubated with G4-1 (10/4M) in 20S proteasome assay buffer for 30 min at room temperature. Lysates treated with G4-1 were subsequently transferred to a semimicrocuvette, and the baseline proteasome activity was determined by measuring the hydrolysis rate of Suc-LLVY-AMC. After establishment of the baseline, lysates treated with G4-1 were rapidly mixed with the 20S proteasome assay buffer, yielding 25-fold dilution. Following this 25-fold dilution from 10 to 0.4/4M G4-1, the hydrolysis of Suc-LLVY-AMC was again monitored over approximately 30 min.

[9] = Microsomal stability assay, human; assay type: in vitro ADME; conditions: human liver microsomes, compared to carfilzomib and bortezomib
Protocol: as §5

[10] = test system: C-L activity of proteasomes in RPMI 8226 cell extracts; test: C-L activity of proteasomes in RPMI 8226 cell extracts (Z-LLE-AMC); assay type: biochemical, human
Protocol: as §1, §2

[11] = test system: LNCaP tumors; conditions: mouse, in vivo
Protocol: as §6, §7

[12] = Phase II clinical trials; cited from earlier work

Structure (SMILES): Cc1ccc(OS(=O)(=O)c2cccc(C(F)(F)F)c2)c(-c2cc(-c3ccccc3)n(CC(=O)N[C@@H]3CCNC3)n2)c1 [G4-1]
- inhibition of proteasomal CT-L activity of cell extracts [1]: effectively inhibit
- anticancer activity against cancer cell lines [2]: good anticancer activity
- metabolic stability [3]: excellent metabolic stability
- anticancer effect in cell line models with acquired resistance [4]: not negatively impacted
- tumor growth in vivo [5]: effectively suppressed tumor growth
- inhibitory potency against the CT-L activity of purified proteasomes [6]: one of the most potent inhibitors
- activity against the T-L activity of cell extracts [7]: no activity
- inhibition of proteasomal activity after preincubation [8]: nearly complete inhibition
- metabolic stability [9]: excellent metabolic stability
- inhibition of proteasomal C-L activity of cell extracts [10]: effectively inhibit
- systemic toxicity in mice [11]: without apparent systemic toxicity

Structure (SMILES): CC(C)C[C@H](NC(=O)[C@H](CCc1ccccc1)NC(=O)CN1CCOCC1)C(=O)N[C@@H](Cc1ccccc1)C(=O)N[C@@H](CC(C)C)C(=O)[C@@]1(C)CO1 [carfilzomib]
- body weight over the course of treatment [5]: weight loss
- median duration of response [12]: 7.8 months
- overall survival [12]: ~16 months
- response rate [12]: under 25%
